Test results reported in ChEMBL document CHEMBL4834403, “Design and Synthesis of Novel Epigenetic Inhibitors Targeting Histone Deacetylases, DNA Methyltransferase 1, and Lysine Methyltransferase G9a with In Vivo Efficacy in Multiple Myeloma” (J Med Chem, 2021).

Target: T1, Histone-lysine N-methyltransferase EHMT2 (Mus musculus, UniProt Q9Z148)
T1 sequence (Q9Z148 whole entry): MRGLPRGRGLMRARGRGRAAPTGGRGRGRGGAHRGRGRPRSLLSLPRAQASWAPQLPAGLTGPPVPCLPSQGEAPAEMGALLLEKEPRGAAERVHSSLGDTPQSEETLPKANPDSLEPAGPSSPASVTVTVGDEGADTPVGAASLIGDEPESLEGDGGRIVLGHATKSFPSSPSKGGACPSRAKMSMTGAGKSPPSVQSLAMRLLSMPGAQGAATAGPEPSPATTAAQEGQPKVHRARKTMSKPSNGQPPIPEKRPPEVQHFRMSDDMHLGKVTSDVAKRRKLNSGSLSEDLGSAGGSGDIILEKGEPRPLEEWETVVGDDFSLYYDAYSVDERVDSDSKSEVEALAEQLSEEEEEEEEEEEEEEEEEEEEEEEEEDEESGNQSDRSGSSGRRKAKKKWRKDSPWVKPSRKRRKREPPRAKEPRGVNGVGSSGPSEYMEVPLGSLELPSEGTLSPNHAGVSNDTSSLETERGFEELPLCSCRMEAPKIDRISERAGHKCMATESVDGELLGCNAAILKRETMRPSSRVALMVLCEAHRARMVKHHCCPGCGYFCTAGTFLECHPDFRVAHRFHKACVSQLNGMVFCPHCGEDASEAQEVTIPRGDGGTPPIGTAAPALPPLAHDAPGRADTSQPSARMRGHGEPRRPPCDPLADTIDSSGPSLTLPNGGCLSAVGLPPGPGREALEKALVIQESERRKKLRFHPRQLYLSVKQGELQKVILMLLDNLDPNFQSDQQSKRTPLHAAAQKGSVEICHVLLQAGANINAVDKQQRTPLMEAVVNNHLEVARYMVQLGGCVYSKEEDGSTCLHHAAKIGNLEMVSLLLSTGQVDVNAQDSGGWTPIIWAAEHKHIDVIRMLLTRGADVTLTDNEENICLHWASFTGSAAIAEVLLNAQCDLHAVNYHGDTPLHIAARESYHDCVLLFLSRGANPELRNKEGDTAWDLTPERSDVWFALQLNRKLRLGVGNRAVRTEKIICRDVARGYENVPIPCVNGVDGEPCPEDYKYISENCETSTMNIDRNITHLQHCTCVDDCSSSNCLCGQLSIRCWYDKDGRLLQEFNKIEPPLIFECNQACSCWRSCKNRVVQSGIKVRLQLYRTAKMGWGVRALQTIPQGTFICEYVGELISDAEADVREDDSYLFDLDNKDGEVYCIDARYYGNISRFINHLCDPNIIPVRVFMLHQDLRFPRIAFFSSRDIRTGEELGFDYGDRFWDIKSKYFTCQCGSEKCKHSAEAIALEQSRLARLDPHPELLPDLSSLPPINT
Experiment: Inhibition of mouse thymus 6His-sumo-tagged G9a (969 to 1263 residues) expressed in Escherichia coli BL21 (DE3) using histone H3 as substrate incubated for 30 mins by MALDI-TOF-MS analysis

## COc1ccc2c(NC3CCN(Cc4ccccc4)CC3)nc(NCCNC(=O)CCCCCC(=O)NO)nc2c1
  IC50: 7.14 µM
